In ChEMBL document CHEMBL1201862, “PubChem BioAssay data set” (2004):
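Grown in 96-well plates, cells were treated for 48 hours with each compound at five concentrations. Insufficient inhibition: endpoint recorded as highest concentration tested. GI50 marks 50% less growth.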 The source made the active and inactive calls. Rule as the data show it: active = GI50 up to about 1.1 µM and inactive = higher.

What was measured:
Experiment in all cases: NCI anticancer screen, dose series, 48 h
CAKI-1 = system: CAKI-1
CCRF-CEM = system: CCRF-CEM
DU-145 = system: DU-145
EKVX = system: EKVX
HOP-62 = system: HOP-62
IGROV-1 = system: IGROV-1
K562 = system: K562
KM12 = system: KM12
MOLT-4 = system: MOLT-4
Malme-3M = system: Malme-3M
NCI-H226 = system: NCI-H226
NCI-H23 = system: NCI-H23
OVCAR-3 = system: OVCAR-3
SF-295 = system: SF-295
SK-MEL-28 = system: SK-MEL-28
SK-MEL-2 = system: SK-MEL-2
SK-OV-3 = system: SK-OV-3
SNB-19 = system: SNB-19
UACC-62 = system: UACC-62

Measured: GI50

CCCCCCCCCC(=O)CC(=O)c1c(O)cc(O)cc1O
inactive: CAKI-1 31.1 µM | CCRF-CEM 34.3 µM | DU-145 22.4 µM | EKVX 31.5 µM | HOP-62 13.6 µM | IGROV-1 26.5 µM | K562 15.2 µM | KM12 18.1 µM | MOLT-4 12.9 µM | Malme-3M 14.4 µM | NCI-H226 16.2 µM | NCI-H23 17.3 µM | OVCAR-3 16.4 µM | SF-295 25.9 µM | SK-MEL-28 23.3 µM | SK-MEL-2 17.7 µM | SK-OV-3 35 µM | SNB-19 22.6 µM

O=C1NC2c3c(I)sc(I)c3C(O)C2O1 (stereo not drawn)
inactive: CAKI-1 > 100 µM | CCRF-CEM 52.8 µM | DU-145 > 100 µM | EKVX > 100 µM | HOP-62 > 100 µM | IGROV-1 > 100 µM | K562 > 100 µM | KM12 > 100 µM | MOLT-4 > 100 µM | Malme-3M > 100 µM | NCI-H226 > 100 µM | NCI-H23 > 100 µM | OVCAR-3 > 100 µM | SF-295 > 100 µM | SK-MEL-28 > 100 µM | SK-MEL-2 > 100 µM | SK-OV-3 > 100 µM | SNB-19 > 100 µM | UACC-62 > 100 µM

CCCNc1ncnc2c1ncn2C
inactive: CAKI-1 36.1 µM | CCRF-CEM 22.1 µM | DU-145 85.3 µM | EKVX > 100 µM | HOP-62 35.2 µM | IGROV-1 54.7 µM | K562 53.1 µM | KM12 > 100 µM | MOLT-4 45.3 µM | Malme-3M 45.3 µM | NCI-H226 > 100 µM | NCI-H23 35.6 µM | OVCAR-3 58.5 µM | SF-295 40.6 µM | SK-MEL-28 > 100 µM | SK-MEL-2 > 100 µM | SK-OV-3 > 100 µM | SNB-19 > 100 µM | UACC-62 45.1 µM

CN1C/C(=C\C=C\c2ccccc2)C(=O)/C(=C/C=C/c2ccccc2)C1
inactive: CAKI-1 > 100 µM | CCRF-CEM 35.9 µM | EKVX > 100 µM | HOP-62 > 100 µM | IGROV-1 > 100 µM | K562 > 100 µM | KM12 > 100 µM | MOLT-4 40.3 µM | Malme-3M > 100 µM | NCI-H226 > 100 µM | NCI-H23 > 100 µM | OVCAR-3 > 100 µM | SF-295 > 100 µM | SK-MEL-28 > 100 µM | SK-MEL-2 > 100 µM | SK-OV-3 > 100 µM | SNB-19 39.6 µM | UACC-62 > 100 µM

Cc1ccc(SC2C(C)(C)N(C(C)C)P2(=O)N(C(C)C)C(C)C)cc1 (stereo not drawn)
inactive: CAKI-1 47 µM | CCRF-CEM 31.8 µM | EKVX 26.4 µM | HOP-62 > 100 µM | IGROV-1 > 86.3 µM | K562 17.7 µM | KM12 > 100 µM | MOLT-4 30.2 µM | Malme-3M > 32.3 µM | NCI-H226 > 100 µM | NCI-H23 26.7 µM | OVCAR-3 55.5 µM | SF-295 70.8 µM | SK-MEL-28 > 95.7 µM | SK-MEL-2 67 µM | SK-OV-3 > 100 µM | SNB-19 51.5 µM | UACC-62 42.1 µM

C/C(=N/NC(=S)Nc1ccccc1Cl)c1cccc(/C(C)=N\NC(=S)Nc2ccccc2Cl)n1
inactive: CAKI-1 > 100 µM | CCRF-CEM 9.79 µM | DU-145 > 100 µM | EKVX > 100 µM | HOP-62 > 100 µM | IGROV-1 42.2 µM | K562 18.7 µM | KM12 7.24 µM | MOLT-4 23.6 µM | Malme-3M 35.8 µM | NCI-H226 > 100 µM | NCI-H23 54.7 µM | OVCAR-3 16.3 µM | SF-295 > 100 µM | SK-MEL-28 > 100 µM | SK-MEL-2 > 100 µM | SK-OV-3 > 100 µM | SNB-19 82.4 µM | UACC-62 > 100 µM

CC(=O)ON(C(C)=O)C1C(COC(c2ccccc2)(c2ccccc2)c2ccccc2)OC2OC3(CCCC3)OC21 (stereo not drawn)
inactive: CAKI-1 > 100 µM | CCRF-CEM 4.13 µM | EKVX 16.9 µM | HOP-62 11.6 µM | IGROV-1 > 100 µM | K562 4.27 µM | KM12 5.09 µM | MOLT-4 3.15 µM | Malme-3M > 89.7 µM | NCI-H226 9.16 µM | NCI-H23 4.24 µM | OVCAR-3 5.37 µM | SF-295 6 µM | SK-MEL-28 > 100 µM | SK-MEL-2 27.2 µM | SK-OV-3 5.53 µM | SNB-19 5.38 µM | UACC-62 > 42 µM

Nc1ncnc2c1ncn2C1CCC(CP(=O)(O)O)C1 (stereo not drawn)
inactive: DU-145 > 100 µM | EKVX > 100 µM | HOP-62 > 100 µM | IGROV-1 > 100 µM | KM12 > 100 µM | Malme-3M > 100 µM | NCI-H226 > 100 µM | NCI-H23 > 100 µM | OVCAR-3 > 100 µM | SF-295 > 100 µM | SK-MEL-28 > 100 µM | SK-MEL-2 > 100 µM | SK-OV-3 > 100 µM | SNB-19 > 100 µM | UACC-62 > 100 µM

CC(=O)c1ccc(Br)cc1NC1=CC(=O)c2ncccc2C1=O
inactive: CAKI-1 7.59 µM | CCRF-CEM 3.47 µM | DU-145 4.36 µM | EKVX 6.4 µM | HOP-62 3.47 µM | IGROV-1 2.69 µM | K562 1.49 µM | KM12 1.83 µM | MOLT-4 2.29 µM | Malme-3M 1.64 µM | NCI-H226 3.64 µM | NCI-H23 2 µM | OVCAR-3 1.61 µM | SF-295 4.62 µM | SK-MEL-28 6.79 µM | SK-MEL-2 4.09 µM | SK-OV-3 15.7 µM | SNB-19 3.84 µM | UACC-62 2.58 µM

N#Cc1ccc(Sc2ccccc2)cc1C#N
inactive: CAKI-1 > 100 µM | CCRF-CEM 18.1 µM | EKVX > 100 µM | HOP-62 36.9 µM | IGROV-1 > 100 µM | K562 45.8 µM | KM12 > 100 µM | MOLT-4 > 100 µM | Malme-3M > 100 µM | NCI-H226 > 100 µM | NCI-H23 50.5 µM | OVCAR-3 > 100 µM | SF-295 39.9 µM | SK-MEL-28 > 100 µM | SK-MEL-2 > 100 µM | SK-OV-3 54 µM | SNB-19 39.3 µM | UACC-62 > 100 µM

CCOC(=O)c1c(SCCCN2CCCCC2)n(-c2ccccc2)c(=S)n(-c2ccccc2)c1=O
inactive: CCRF-CEM 15.3 µM | DU-145 16.4 µM | EKVX 27.8 µM | HOP-62 33 µM | K562 5.48 µM | KM12 19.2 µM | MOLT-4 7.26 µM | Malme-3M 16.3 µM | NCI-H226 15.6 µM | NCI-H23 18.6 µM | OVCAR-3 16.7 µM | SK-MEL-28 17.4 µM | SK-MEL-2 16.7 µM | SNB-19 16.7 µM | UACC-62 4.28 µM

C/C(=N/N)c1sc(-c2nc(C)c(/C(C)=N\N)s2)nc1C
inactive: CAKI-1 > 100 µM | CCRF-CEM 27.2 µM | EKVX > 100 µM | HOP-62 > 100 µM | IGROV-1 > 100 µM | K562 47.3 µM | KM12 > 100 µM | MOLT-4 24.5 µM | Malme-3M > 100 µM | NCI-H226 > 100 µM | NCI-H23 > 100 µM | OVCAR-3 > 100 µM | SF-295 > 100 µM | SK-MEL-28 > 100 µM | SK-MEL-2 > 100 µM | SK-OV-3 > 100 µM | SNB-19 > 100 µM | UACC-62 > 92.7 µM

O=C1OC(CC(=O)c2ccc(Cl)cc2Cl)C(Cl)=C1Cl (stereo not drawn)
inactive: CAKI-1 30.8 µM | CCRF-CEM 25.7 µM | EKVX > 54.7 µM | HOP-62 > 59.2 µM | IGROV-1 > 41 µM | K562 29.1 µM | KM12 > 100 µM | MOLT-4 24.8 µM | Malme-3M 19.7 µM | NCI-H226 30 µM | NCI-H23 28.9 µM | OVCAR-3 33.8 µM | SF-295 > 100 µM | SK-MEL-28 19.1 µM | SK-MEL-2 19.8 µM | SK-OV-3 > 36.1 µM | SNB-19 > 49.2 µM | UACC-62 17 µM

CN1C/C(=C\c2ccco2)c2nc(N)nc(-c3ccco3)c2C1
inactive: CAKI-1 > 100 µM | CCRF-CEM 74.1 µM | EKVX > 100 µM | HOP-62 > 100 µM | IGROV-1 > 100 µM | K562 > 100 µM | KM12 31.5 µM | MOLT-4 48.9 µM | Malme-3M > 100 µM | NCI-H226 34.5 µM | NCI-H23 > 100 µM | OVCAR-3 43.9 µM | SF-295 > 100 µM | SK-MEL-28 > 100 µM | SK-MEL-2 > 100 µM | SK-OV-3 > 100 µM | SNB-19 > 100 µM | UACC-62 > 100 µM

Cc1cc2ccccc2c[n+]1CC(=O)CC([O-])(C(F)(F)F)C(F)(F)F
inactive: CAKI-1 > 100 µM | CCRF-CEM 90.8 µM | DU-145 > 100 µM | EKVX > 100 µM | HOP-62 > 100 µM | IGROV-1 41.3 µM | K562 72.8 µM | MOLT-4 79.8 µM | Malme-3M > 100 µM | NCI-H226 > 100 µM | NCI-H23 87.5 µM | OVCAR-3 53.2 µM | SF-295 > 100 µM | SK-MEL-28 > 100 µM | SK-MEL-2 > 100 µM | SK-OV-3 > 100 µM | SNB-19 > 100 µM | UACC-62 > 100 µM
